Test results from PMC12186257, “Serendipitous and Systematic Chemoproteomic Discovery of MBLAC2, HINT1, and NME1‑4 Inhibitors from Histone Deacetylase-Targeting Pharmacophores” (ACS Chemical Biology, 2025).

Experiments:
[1] = tested on: casein kinase 2 (CK2) complex proteins (CSNK2A1/3, CSNK2A2, CSNK2B, EIF3J); assay: Kinobead competition assay; assay type: binding, human
Text: The binding of KV-24 and KV-30 to the nucleotide-binding pocket raises the question of whether these compounds also target other nucleotide-binding proteins, such as kinases. To evaluate potential off-target effects, we performed Kinobead competition assays. This chemoproteomic approach is conceptually very similar to the one used here in that broad spectrum kinase inhibitors are immobilized on beads. […] PDE1C is a cAMP/cGMP nucleotide-binding protein that features two divalent metal cation cofactors. The hydroxamic acid moiety of KV-24 might chelate these metal cofactors, supporting the hypothesis that KV-24 binds the active site of PDE1C. […]
Given that local GTP production by NME1 and NME2 is essential for fueling dynamin-driven endocytosis, we investigated the effect of KV-50-mediated NME1/2 inhibition on fluorescent transferrin (TF) uptake in cells. HeLa cells were treated with KV-50 or known endocytosis inhibitors (Pitstop-2 and Dynasore), and surface-bound and internalized fluorescent TF were quantified. […]
LC-MS/MS. The different sample types were measured with different LC-MS/MS settings. MBLAC2 2-dose competition assays were measured with the Lumos1 setup, MBLAC2 9-dose competition assays were measured with the Lumos2 setup, and kinobeads assays were measured with the Eclipse setup. […]

[2] = biological target: T1, PDE1C (Homo sapiens, UniProt Q14123); assay: Kinobead competition assay; details: dose-dependent binding; read-out: affinity PDE1C
T1 construct: endogenous in cells
Text: The binding of KV-24 and KV-30 to the nucleotide-binding pocket raises the question of whether these compounds also target other nucleotide-binding proteins, such as kinases. To evaluate potential off-target effects, we performed Kinobead competition assays. This chemoproteomic approach is conceptually very similar to the one used here in that broad spectrum kinase inhibitors are immobilized on beads. […] PDE1C is a cAMP/cGMP nucleotide-binding protein that features two divalent metal cation cofactors. The hydroxamic acid moiety of KV-24 might chelate these metal cofactors, supporting the hypothesis that KV-24 binds the active site of PDE1C. […] With the help of our chemoproteomic platform, future structure–activity relationship (SAR) libraries based on the KV-24 and KV-30 scaffolds may be explored to improve selectivity toward either HINT1, kinase targets, or PDE1C. […]
LC-MS/MS. The different sample types were measured with different LC-MS/MS settings. MBLAC2 2-dose competition assays were measured with the Lumos1 setup, MBLAC2 9-dose competition assays were measured with the Lumos2 setup, and kinobeads assays were measured with the Eclipse setup.
Peptides were analyzed via LC–MS/MS on a Dionex Ultimate3000 nano HPLC coupled to either one of two Orbitrap Fusion Lumos mass spectrometers, or to an Orbitrap Eclipse mass spectrometer, operated via the Thermo Scientific Xcalibur software. […]

T1 sequence (Q14123 whole entry): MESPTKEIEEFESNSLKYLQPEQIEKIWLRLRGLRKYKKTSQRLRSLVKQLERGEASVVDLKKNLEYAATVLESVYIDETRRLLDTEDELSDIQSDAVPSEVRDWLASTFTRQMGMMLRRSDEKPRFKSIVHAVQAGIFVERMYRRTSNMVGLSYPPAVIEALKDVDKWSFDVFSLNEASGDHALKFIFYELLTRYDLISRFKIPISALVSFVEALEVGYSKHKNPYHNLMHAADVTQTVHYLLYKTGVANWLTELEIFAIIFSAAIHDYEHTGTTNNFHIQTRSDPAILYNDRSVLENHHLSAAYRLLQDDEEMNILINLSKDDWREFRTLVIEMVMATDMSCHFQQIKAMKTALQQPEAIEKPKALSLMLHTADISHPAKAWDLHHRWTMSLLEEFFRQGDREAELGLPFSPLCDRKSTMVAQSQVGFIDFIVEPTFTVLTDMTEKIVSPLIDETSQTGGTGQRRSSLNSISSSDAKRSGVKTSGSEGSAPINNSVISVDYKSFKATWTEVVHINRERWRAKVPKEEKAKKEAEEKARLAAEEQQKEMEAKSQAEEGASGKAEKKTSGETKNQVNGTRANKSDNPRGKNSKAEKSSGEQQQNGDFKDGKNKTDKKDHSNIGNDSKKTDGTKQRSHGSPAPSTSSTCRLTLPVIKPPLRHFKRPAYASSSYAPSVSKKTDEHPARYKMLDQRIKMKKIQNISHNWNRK

- Kd [2]: ~2 µM
Compound: O=C(NO)c1ccc(-c2nc3ccccc3n3cccc23)cc1 [KV-24]
- casein kinase 2 family members binding [1]: reduced binding at two-digit μM concentrations
